According to patent US5567716A, “Trans and cis traumatic acid salts having cicatrizant activity associated to bacteriostatic, antiviral, antibiotic or antifungal activity” (priority 1992, dated 1996):
Where two headings read alike, the source gives them in different places.

How the values were obtained:
[1] = for organic solvent solubility: dmso
E.coli ATCC 35218 = assay: microbe, parasite or virus in culture; type: cell-based; details: Table 2.b)3; test concentrations given in μg/ml
Experimental: (§1) 1. Culture Medium: Tryprone Soy Broth (TBS) - Biogenetics
(§2) Microbic standard strains from American Type Culture Collection (ATCC) were used, chosen among aerobic Gram positive and negative as follows:
(§3) The broths culture of the different species are prepared growing the standard strain (kept in Tryptic Soy Agar (TSA) slent at 5° C.) in Tryptone Soy Broth (TSB) for 12 hours at 37° C. 10 ml are then taken up from each culture, centrifugated for 3 times at 3500 PM washing each time the sediment using 10 ml of sterile saline solution. The sediment is resuspended in the saline solution until obtainment of a turbidity corresponding to the Mc Farland standard solution (the suspension title must be […] UFC/ml).
(§4) The compounds, dissolved as stock solution, were added to test tubes containing 5 ml TBS in order to obtain the desired Final concentration 10000; 5000; 1000; 200; 40; 2; 0.4; 0.05 μg/ml (culture medium maximal dilution=1/10).
(§5) 50 μl of bacterial suspension are added to the tube containing the compounds to be tested and incubated at 37° C.: the densitometric determination is made in comparison with Mc Farland standard solution 24 and 48 hours later.
(§6) After the incubation time the suspensions ape gently agitated; 50 μl of each suspension are inoculated in tubes containing […] of TSB and incubated at 37° C.; the densitometric determination is made 48 hours later.
(§7) BMC is defined by comparison between the two densitometric evaluation.

B.subtilis ATCC 6633 = assay: Evaluation of bacteriostatic minimal concentration (BMC); type: cell-based; details: Table 2.b)5; test concentrations given in μg/ml
Experimental: as §1, §2, §3, §4, §5, §6, §7

[2] = test system: St.epidermidis ATCC 14990; assay: as above; type: cell-based; details: Table 2.b)4; test concentrations given in μg/ml
Experimental: as §1, §2, §3, §4, §5, §6, §7

C.albicans ATCC 10231 = assay: as above; type: cell-based; details: Table 2.b)6; test concentrations given in μg/ml
Experimental: as §1, §2, §3, §4, §5, §6, §7

St.aureus ATCC 65380 = assay: as above; type: cell-based; details: Table 2.b)2; test concentrations given in μg/ml
Experimental: as §1, §2, §3, §4, §5, §6, §7

Ps.aeruginosa ATCC 35422 = assay: as above; type: cell-based; details: Table 2.b)1; test concentrations given in μg/ml
Experimental: as §1, §2, §3, §4, §5, §6, §7

Balb/C 3T3 fibroblasts = assay: Cell growth of Balb/C 3T3 fibroblasts, crystal violet colorimetry (1.1b); type: cell-based, Mouse; details: for promotion of cell growth: 10^-5 to 10^-7 M, lincomycin > rolitetracycline > erythromycin salt; for promotion of cell growth / cell growth effect compared to traumatic acid: in words; for cell growth t2/t1: 48 h/24 h, control 76.776
Experimental: Mouse Balb/C 3T3 fibroblasts were grown in DMEM medium supplemented with penicillin (100 units/ml) and streptomycin (0.1 mg/ml). For experimental purposes, cells are routinely inoculated in […] diameter culture dishes (5000cells/dish) and cultured overnight.
The compounds to be tested are solubilized in DMEM+10%FCS and DMSO to obtain the final concentration of 10^-5 M, 10^-6 M e 10^-7 M in 0.05% DMSO.
The cells number is measured 4, 24 and 48 hours after seeding. The cell growth is evaluated as t2/t1 ratio (%).

fibroblast cells L929 = assay: Cell growth of fibroblast L929 culture, crystal violet colorimetry (1.2); details: in words
Experimental: Mice fibroblast cells L929, clone derived from connective tissue, are suspended in Eagle's MEM with penicillin (100U/ml)--streptomycin (0.1 mg/ml), seeded in culture dishes (10000cells/dish) and cultured overnight. After 24 hours the culture medium was decantated and the tested compounds are added. The cellular density is measured after 4 (t0) and 24 (t1) hours of incubation at 37° C. in 5% CO2 air by colorimetry using crystal violet (exposure for 15 minutes, room temperature; absorbance 570 nm).
The cells number is measured at 4 (t0) and 24 (t1) hours from the seeding. The cell growth is evaluated at t1/t0 rate (%).

[3] = Physical chemical characteristics: solubility in water and organic solvents
[4] = 4 h (t0), 10^-5M, control 0.300
[5] = 4 h (t0), 10^-6M, control 0.300
[6] = 4 h (t0), 10^-7M, control 0.300
[7] = 24 h (t1), 10^-5M, control 0.481
[8] = 24 h (t1), 10^-6M, control 0.481
[9] = 24 h (t1), 10^-7M, control 0.481
[10] = 48 h (t2), 10^-5M, control 0.849
[11] = 48 h (t2), 10^-6M, control 0.849
[12] = 48 h (t2), 10^-7M, control 0.849

Row | SMILES | organic solvent solubility [1] [mg/mL] | MINIMAL BACTERIAL CONCENTRATION (E.coli ATCC 35218) | MINIMAL BACTERIAL CONCENTRATION (B.subtilis ATCC 6633) | MINIMAL BACTERIAL CONCENTRATION [2] | MINIMAL BACTERIAL CONCENTRATION (C.albicans ATCC 10231) | MINIMAL BACTERIAL CONCENTRATION (St.aureus ATCC 65380) | MINIMAL BACTERIAL CONCENTRATION (Ps.aeruginosa ATCC 35422) | promotion of cell growth (Balb/C 3T3 fibroblasts) | Cell density (Balb/C 3T3 fibroblasts; [4]) | Cell density (Balb/C 3T3 fibroblasts; [5]) | Cell density (Balb/C 3T3 fibroblasts; [6]) | Cell density (Balb/C 3T3 fibroblasts; [7]) | Cell density (Balb/C 3T3 fibroblasts; [8]) | Cell density (Balb/C 3T3 fibroblasts; [9]) | Cell density (Balb/C 3T3 fibroblasts; [10]) | Cell density (Balb/C 3T3 fibroblasts; [11]) | Cell density (Balb/C 3T3 fibroblasts; [12]) | cell growth t2/t1 (Balb/C 3T3 fibroblasts; 10^-5M) [%] | cell growth t2/t1 (Balb/C 3T3 fibroblasts; 10^-6M) [%] | cell growth t2/t1 (Balb/C 3T3 fibroblasts; 10^-7M) [%] | also measured
1 | CCC[C@@H]1C[C@@H](C(=O)N[C@@H]([C@H]2O[C@H](SC)[C@H](O)[C@@H](O)[C@H]2O)[C@@H](C)O)N(C)C1.O=C(O)/C=C/CCCCCCCCC(=O)O (relative stereo) [Lincomycin Traumatate, lincomycin trans-traumatate] | > 10 | 10,000.00 | 1,000.00 | 200.00 | 10,000.00 | 10,000.00 | 10,000.00 | capable to promote cell growth at all the tested doses | 0.361 | 0.352 | 0.384 | 0.228 | 0.210 | 0.209 | 0.693 | 0.734 | 0.705 | 195.78 | 246.29 | 247.68 | solubility in water ([1]; water): > 10 mg/mL; cell growth effect compared to traumatic acid (Balb/C 3T3 fibroblasts): more consistent if compared to the corresponding one of the parent compound traumatic acid
2 | CC(C)(C)CC(C)(C)c1ccc(OCCOCC[N+](C)(C)Cc2ccccc2)cc1.CC(C)(C)CC(C)(C)c1ccc(OCCOCC[N+](C)(C)Cc2ccccc2)cc1.O=C([O-])/C=C/CCCCCCCCC(=O)[O-] [Benzethonium Traumatate, benzethonium trans-traumatate] |  | 40.00 | 8.00 | 2.00 | 2.00 | 2.00 | 200.00 |  |  |  |  |  |  |  |  |  |  |  |  |  | cell growth effect compared to traumatic acid (fibroblast cells L929): higher than traumatic acid effect; promotion of cell growth (proliferation) (fibroblast cells L929; benzethonium > gentamycin salt): capable to promote cell growth (proliferation) according to dose-effect relationship
3 | NC(=NCCCCCCN=C(N)N=C(N)Nc1ccc(Cl)cc1)N=C(N)Nc1ccc(Cl)cc1.O=C(O)/C=C/CCCCCCCCC(=O)O [Chlorhexidine Traumatate, chlorhexidine trans-traumatate] | > 10 | 8.00 | 2.00 | 2.00 | 2.00 | 8.00 | 40.00 |  |  |  |  |  |  |  |  |  |  |  |  |  | 
4 | CC[C@H]1OC(=O)[C@H](C)[C@@H](O[C@H]2C[C@@](C)(OC)[C@@H](O)[C@H](C)O2)[C@H](C)[C@@H](O[C@@H]2O[C@H](C)C[C@H](N(C)C)[C@H]2O)[C@](C)(O)C[C@@H](C)C(=O)[C@H](C)[C@@H](O)[C@]1(C)O.CC[C@H]1OC(=O)[C@H](C)[C@@H](O[C@H]2C[C@@](C)(OC)[C@@H](O)[C@H](C)O2)[C@H](C)[C@@H](O[C@@H]2O[C@H](C)C[C@H](N(C)C)[C@H]2O)[C@](C)(O)C[C@@H](C)C(=O)[C@H](C)[C@@H](O)[C@]1(C)O.O=C(O)/C=C/CCCCCCCCC(=O)O [Erythromycin Traumatate, Erythromycin trans-traumatate] |  | 10,000.00 | 1,000.00 |  | > 10,000 | 10,000.00 | 10,000.00 | capable to promote cell growth at all the tested doses | 0.370 | 0.352 | 0.344 | 0.365 | 0.369 | 0.368 | 0.919 | 0.921 | 1.074 | 159.16 | 148.64 | 196.81 | organic solvent solubility ([3]; in DMSO): > 10 mg/mL; organic solvent solubility ([3]; in ethanol): > 10 mg/mL; water solubility ([3]; water, in words): poorly soluble; cell growth effect compared to traumatic acid (Balb/C 3T3 fibroblasts): more consistent if compared to the corresponding one of the parent compound traumatic acid
